{
  "source": "patent US20250154686A1",
  "about": "“COMPOUND LIBRARY” (CHUGAI SEIYAKU KABUSHIKI KAISHA, priority 2021, published 2025)",
  "target": "T1, Bcl-2 protein (Recombinant Human Bcl-2 Protein) (Homo sapiens, UniProt P10415)",
  "T1 construct": "purchased Novus Biologicals NBP2-34889",
  "T1 sequence (P10415 whole entry)": "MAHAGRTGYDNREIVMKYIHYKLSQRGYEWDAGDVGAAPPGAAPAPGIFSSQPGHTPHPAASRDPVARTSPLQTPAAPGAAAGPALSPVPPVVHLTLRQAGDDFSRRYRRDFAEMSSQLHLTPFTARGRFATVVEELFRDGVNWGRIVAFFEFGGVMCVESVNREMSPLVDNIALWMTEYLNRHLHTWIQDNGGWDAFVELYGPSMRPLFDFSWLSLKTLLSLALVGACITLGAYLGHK",
  "experiment": "AS-MS evaluation of binding of the Example 4 mixture library (1200 compounds/well) to Bcl-2, ASMS ratio (%)",
  "summary_of_the_method": "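Affinity-selection MS: 1200 cpds/well, 20 nM each; hBcl-2 20 μM; 25 mM Tris pH 7.4/150 mM NaCl/0.025% Tween-20/1 mM DTT; 1 h, 23 °C, dark; P-2 size-exclusion spin, MeCN:MeOH 1:1 extraction; RP LC/MS; ratio vs no-protein STD and SEC blank.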",
  "key": {"[1]": {"details": "AS-MS, Example 4 mixture library, Bcl-2, replicate n = 1"}, "[2]": {"details": "AS-MS, Example 4 mixture library, Bcl-2, replicate n = 2"}, "[3]": {"details": "AS-MS, mixture of 1200 compounds/well, Bcl-2 protein, replicate n = 1"}, "[4]": {"details": "AS-MS, mixture of 1200 compounds/well, Bcl-2 protein, replicate n = 2"}, "[5]": {"details": "Example 4 mixture library, 1200 compounds/well, Bcl-2 protein, replicate n = 1, value belongs to the MS peak assignable to the compound"}, "[6]": {"details": "Example 4 mixture library, 1200 compounds/well, Bcl-2 protein, replicate n = 2, value belongs to the MS peak assignable to the compound"}},
  "data": [
    {"smiles": "CCOc1cncc(-c2cc(CN3CCN(c4ccc(C(=O)NS(=O)(=O)c5ccc(NCCSc6ccccc6)c(C(F)(F)F)c5)nn4)CC3)cc(OC(F)(F)F)c2)c1", "note": "[Compound B2R090-01, 6-[4-[[3-(5-Ethoxypyridin-3-yl)-5-(trifluoromethoxy)phenyl]methyl]piperazin-1-yl]-N-[4-(2-phenylsulfanylethylamino)-3-(trifluoromethyl)phenyl]sulfonylpyridazine-3-carboxamide]", "values": [
      {"measurement": "ASMS ratio (%) n = 1", "setting": "[1]", "result": 22.4, "unit": "%"},
      {"measurement": "ASMS ratio (%) n = 2", "setting": "[2]", "result": 5.3, "unit": "%"}
    ]},
    {"smiles": "CCOc1cccc(-c2ccc(CN3CCN(c4ccc(C(=O)NS(=O)(=O)c5ccc(NCCSc6ccccc6)c(C(F)(F)F)c5)nn4)CC3)c3ccccc23)c1", "note": "[Compound B2R091-01, 6-[4-[[4-(3-Ethoxyphenyl)naphthalen-1-yl]methyl]piperazin-1-yl]-N-[4-(2-phenylsulfanylethylamino)-3-(trifluoromethyl)phenyl]sulfonylpyridazine-3-carboxamide]", "values": [
      {"measurement": "ASMS ratio (%) n = 1", "setting": "[1]", "result": "−3.5", "unit": "%"},
      {"measurement": "ASMS ratio (%) n = 2", "setting": "[2]", "result": 1.8, "unit": "%"}
    ]},
    {"smiles": "CCOc1cncc(-c2ccc(CN3CCN(c4ccc(C(=O)NS(=O)(=O)c5ccc(NCCSc6ccccc6)c(C(F)(F)F)c5)nn4)CC3)c3ccccc23)c1", "note": "[Compound B2R092-01, 6-[4-[[4-(5-Ethoxypyridin-3-yl)naphthalen-1-yl]methyl]piperazin-1-yl]-N-[4-(2-phenylsulfanylethylamino)-3-(trifluoromethyl)phenyl]sulfonylpyridazine-3-carboxamide]", "values": [
      {"measurement": "ASMS ratio (%) n = 1", "setting": "[1]", "result": 16.0, "unit": "%"},
      {"measurement": "ASMS ratio (%) n = 2", "setting": "[2]", "result": "−1.3", "unit": "%"}
    ]},
    {"smiles": "CCOc1cccc(-c2csc(CN3CCN(c4ccc(C(=O)NS(=O)(=O)c5ccc(NCCSc6ccccc6)c(C(F)(F)F)c5)nn4)CC3)c2)c1", "note": "[Compound B2R093-01, 6-[4-[[4-(3-Ethoxyphenyl)thiophen-2-yl]methyl]piperazin-1-yl]-N-[4-(2-phenylsulfanylethylamino)-3-(trifluoromethyl)phenyl]sulfonylpyridazine-3-carboxamide]", "values": [
      {"measurement": "ASMS ratio (%) n = 1", "setting": "[1]", "result": 56.5, "unit": "%"},
      {"measurement": "ASMS ratio (%) n = 2", "setting": "[2]", "result": 0.0, "unit": "%"}
    ]},
    {"smiles": "CCOc1cncc(-c2csc(CN3CCN(c4ccc(C(=O)NS(=O)(=O)c5ccc(NCCSc6ccccc6)c(C(F)(F)F)c5)nn4)CC3)c2)c1", "note": "[Compound B2R094-01, 6-[4-[[4-(5-Ethoxypyridin-3-yl)thiophen-2-yl]methyl]piperazin-1-yl]-N-[4-(2-phenylsulfanylethylamino)-3-(trifluoromethyl)phenyl]sulfonylpyridazine-3-carboxamide]", "values": [
      {"measurement": "ASMS ratio (%) n = 1", "setting": "[1]", "result": 18.8, "unit": "%"},
      {"measurement": "ASMS ratio (%) n = 2", "setting": "[2]", "result": 11.9, "unit": "%"}
    ]},
    {"smiles": "CCOc1cccc(C#Cc2ccccc2CN2CCN(c3ccc(C(=O)NS(=O)(=O)c4ccc(NCCSc5ccccc5)c(C(F)(F)F)c4)nn3)CC2)c1", "note": "[Compound B2R095-01, 6-[4-[[2-[2-(3-Ethoxyphenyl)ethynyl]phenyl]methyl]piperazin-1-yl]-N-[4-(2-phenylsulfanylethylamino)-3-(trifluoromethyl)phenyl]sulfonylpyridazine-3-carboxamide]", "values": [
      {"measurement": "ASMS ratio (%) n = 1", "setting": "[1]", "result": 42.2, "unit": "%"},
      {"measurement": "ASMS ratio (%) n = 2", "setting": "[2]", "result": 5.5, "unit": "%"}
    ]},
    {"smiles": "CCOc1cccc(-c2ccc(C(C)N3CCN(c4ccc(C(=O)NS(=O)(=O)c5ccc(NCCSc6ccccc6)c(C(F)(F)F)c5)cc4)CC3)cc2)c1", "note": "(stereo not shown) [Compound B2R097-01, 4-[4-[1-[4-(3-Ethoxyphenyl)phenyl]ethyl]piperazin-1-yl]-N-[4-(2-phenylsulfanylethylamino)-3-(trifluoromethyl)phenyl]sulfonylbenzamide]", "values": [
      {"measurement": "ASMS ratio (%) n = 1", "setting": "[1]", "result": 6.6, "unit": "%"},
      {"measurement": "ASMS ratio (%) n = 2", "setting": "[2]", "result": "−7.8", "unit": "%"}
    ]},
    {"smiles": "CCOc1cncc(-c2ccc(C(C)N3CCN(c4ccc(C(=O)NS(=O)(=O)c5ccc(NCCSc6ccccc6)c(C(F)(F)F)c5)cc4)CC3)cc2)c1", "note": "(stereo not shown) [Compound B2R098-01, 4-[4-[1-[4-(5-Ethoxypyridin-3-yl)phenyl]ethyl]piperazin-1-yl]-N-[4-(2-phenylsulfanylethylamino)-3-(trifluoromethyl)phenyl]sulfonylbenzamide]", "values": [
      {"measurement": "ASMS ratio (%) n = 1", "setting": "[1]", "result": 9.2, "unit": "%"},
      {"measurement": "ASMS ratio (%) n = 2", "setting": "[2]", "result": 7.5, "unit": "%"}
    ]},
    {"smiles": "CCOc1cccc(-c2ccc(C(C)N3CCN(c4ccc(C(=O)NS(=O)(=O)c5ccc(NCCSc6ccccc6)c(C(F)(F)F)c5)cc4)CC3)c(F)c2)c1", "note": "(stereo not shown) [Compound B2R099-01, 4-[4-[1-[4-(3-Ethoxyphenyl)-2-fluorophenyl]ethyl]piperazin-1-yl]-N-[4-(2-phenylsulfanylethylamino)-3-(trifluoromethyl)phenyl]sulfonylbenzamide]", "values": [
      {"measurement": "ASMS ratio (%) n = 1", "setting": "[1]", "result": "−12.6", "unit": "%"},
      {"measurement": "ASMS ratio (%) n = 2", "setting": "[2]", "result": "−7.5", "unit": "%"}
    ]},
    {"smiles": "CCOc1cncc(-c2ccc(C(C)N3CCN(c4ccc(C(=O)NS(=O)(=O)c5ccc(NCCSc6ccccc6)c(C(F)(F)F)c5)cc4)CC3)c(F)c2)c1", "note": "(stereo not shown) [Compound B2R100-01, 4-[4-[1-[4-(5-Ethoxypyridin-3-yl)-2-fluorophenyl]ethyl]piperazin-1-yl]-N-[4-(2-phenylsulfanylethylamino)-3-(trifluoromethyl)phenyl]sulfonylbenzamide]", "values": [
      {"measurement": "ASMS ratio (%) n = 1", "setting": "[1]", "result": 0.6, "unit": "%"},
      {"measurement": "ASMS ratio (%) n = 2", "setting": "[2]", "result": 10.1, "unit": "%"}
    ]},
    {"smiles": "CCOc1cccc(C#Cc2cc(C(=O)N3CCN(c4ccc(C(=O)N(C)CC56CC7CC(CC(C7)C5)C6)nn4)CC3)cc(C(F)(F)F)c2)c1", "note": "[Compound B3A019-01, N-(1-Adamantylmethyl)-6-[4-[3-[2-(3-ethoxyphenyl)ethynyl]-5-(trifluoromethyl)benzoyl]piperazin-1-yl]-N-methylpyridazine-3-carboxamide]", "values": [
      {"measurement": "ASMS ratio (%) n = 1", "setting": "[3]", "result": 2.6, "unit": "%"},
      {"measurement": "ASMS ratio (%) n = 2", "setting": "[4]", "result": "−2.3", "unit": "%"}
    ]},
    {"smiles": "CCOc1cncc(C#Cc2cc(C(=O)N3CCN(c4ccc(C(=O)N(C)CC56CC7CC(CC(C7)C5)C6)nn4)CC3)cc(C(F)(F)F)c2)c1", "note": "[Compound B3A020-01, N-(1-Adamantylmethyl)-6-[4-[3-[2-(5-ethoxypyridin-3-yl)ethynyl]-5-(trifluoromethyl)benzoyl]piperazin-1-yl]-N-methylpyridazine-3-carboxamide]", "values": [
      {"measurement": "ASMS ratio (%) n = 1", "setting": "[3]", "result": 7.5, "unit": "%"},
      {"measurement": "ASMS ratio (%) n = 2", "setting": "[4]", "result": "−3.2", "unit": "%"}
    ]},
    {"smiles": "CCOc1cncc(-c2ccc(C(=O)N3CCN(c4ccc(C(=O)N(CC)CC)nn4)CC3)cc2F)c1", "note": "[Compound B4J006-01, 6-[4-[4-(5-Ethoxypyridin-3-yl)-3-fluorobenzoyl]piperazin-1-yl]-N,N-diethylpyridazine-3-carboxamide]", "values": [
      {"measurement": "ASMS ratio (%) n = 1", "setting": "[5]", "result": 0.0, "unit": "%"},
      {"measurement": "ASMS ratio (%) n = 2", "setting": "[6]", "result": 0.0, "unit": "%"}
    ]},
    {"smiles": "CCOc1cccc(-c2cc(OC)c(CN3CCN(c4ccc(C(=O)N(CC)CC)cc4)CC3)c(OC)c2)c1", "note": "[Compound B4J059-01, 4-[4-[[4-(3-Ethoxyphenyl)-2,6-dimethoxyphenyl]methyl]piperazin-1-yl]-N,N-diethylbenzamide]", "values": [
      {"measurement": "ASMS ratio (%) n = 1", "setting": "[5]", "result": "−0.1", "unit": "%"},
      {"measurement": "ASMS ratio (%) n = 2", "setting": "[6]", "result": "−6.0", "unit": "%"}
    ]},
    {"smiles": "CCOc1cncc(-c2cc(OC)c(CN3CCN(c4ccc(C(=O)N(CC)CC)cc4)CC3)c(OC)c2)c1", "note": "[Compound B4J060-01, 4-[4-[[4-(5-Ethoxypyridin-3-yl)-2,6-dimethoxyphenyl]methyl]piperazin-1-yl]-N,N-diethylbenzamide]", "values": [
      {"measurement": "ASMS ratio (%) n = 1", "setting": "[5]", "result": 0.0, "unit": "%"},
      {"measurement": "ASMS ratio (%) n = 2", "setting": "[6]", "result": 0.0, "unit": "%"}
    ]},
    {"smiles": "CCOc1cccc(-c2ccc(CN3CCN(c4ccc(C(=O)N(CC)CC)nn4)CC3)cc2F)c1", "note": "[Compound B4J077-01, 6-[4-[[4-(3-Ethoxyphenyl)-3-fluorophenyl]methyl]piperazin-1-yl]-N,N-diethylpyridazine-3-carboxamide]", "values": [
      {"measurement": "ASMS ratio (%) n = 2", "setting": "[6]", "result": 5.5, "unit": "%"}
    ]}
  ]
}
